Laboratory results published in patent publication US20030064954A1, “Cationic amphiphilic 1,4-dihydropyridine derivatives useful for delivery of nucleotide containing compounds” (priority 2000, published 2003).

What was measured:
[1] = tested on: CV-1P (African monkey green kidney fibroblasts cells); experiment: In vitro transfection of plasmid DNA, β-galactosidase activity per well; type: cell-based; conditions: CVI-P
Description: Transfer of plasmid DNA by various compounds was investigated by using CV-1P (African monkey green kidney fibroblasts cells) and D407 (human retinal pigment epithelial) cells.
The cells were cultured in Dulbecco's modified Eagle's medium (DMEM, Gibco), supplemented with 10% fetal bovine serum (FBS), penicillin/streptomycin (100 units/ml and 100 μg/ml respectively) and 2 mM L-glutamine for D 407 cell line. Cell cultures were maintained at 37° C. in a 7% CO2/air incubator. The cells were collected, counted and seeded in growth medium (100 μl) into 96-well culture plate, 20 000 cells per well. One day later the medium was replaced with fresh medium without serum (150 μl)
In the case of confluent CV1-P cells the medium (with of without serum) was changed on fourth day of cell growth before the transfection.
The complexes at different derivative/DNA charge ratios for transfection procedure were prepared just before use in 50 mM MES—50 mM HEPES—75 mM NaCl buffer, pH 7.2 in separate 96 well plates. One hour after changing the serum-free medium with 10% serum the complexes were added to the cells at […]. Dose of DNA per well was 0.6 μg. After 5 h the complexes were removed, the cells were washed with PBS, and the normal growth medium was added. After 45 h of incubation at 37° C. the cells were lysed with 2% Triton X 100, twice deep frozen and the β-galactosidase activity in each well was determined spectrofotometrically with ELx800 automated microplate reader (Bio-Tex Instruments Inc., Winooski, Vt. USA) by monitoring the hydrolysis of o-nitrophenylgalactopyranoside (oNPG) at 405 nm. Purified β-galactosidase from E.coli was used to construct a standard curve and to calculate […] activity in the transfected cells. […] Transfection efficiencies are given as percentage in comparison to transfection efficiency of Lipofectin^R.

[2] = tested on: D407 (human retinal pigment epithelial) cells; experiment: as above; type: cell-based; conditions: D 407
Description: The complexes at different derivative/DNA charge ratios for transfection procedure were prepared just before use in 50 mM MES—50 mM HEPES—75 mM NaCl buffer, pH 7.2 in separate 96 well plates. One hour after changing the serum-free medium with 10% serum the complexes were added to the cells at 370C. Dose of DNA per well was 0.6 μg. After 5 h the complexes were removed, the cells were washed with PBS, and the normal growth medium was added. After 45 h of incubation at 37° C. the cells were lysed with 2% Triton X 100, twice deep frozen and the β-galactosidase activity in each well was determined spectrofotometrically with ELx800 automated microplate reader (Bio-Tex Instruments Inc., Winooski, Vt. USA) by monitoring the hydrolysis of o-nitrophenylgalactopyranoside (oNPG) at 405 nm. Purified β-galactosidase from E.coli was used to construct a standard curve and to calculate 9-galactosidase activity in the transfected cells. […] Transfection efficiencies are given as percentage in comparison to transfection efficiency of Lipofectin^R.

D 407 cells = experiment: Cytotoxicity of amphiphile/DNA complexes, percentage of survived cells; type: cell-based, human; design: concentration or dose not given beside the values
plasmid DNA = experiment: DNA condensation/complexation, EtBr displacement assay; type: binding
Description: The ability of the cationic amphiphiles to condense DNA was assessed with an EtBr displacement assay. Briefly, in 96 well plates plasmid DNA (0.6 μg per well) was reacted with 0.002% EtBr in 20 mM HEPES—150 mM NaCl buffer, pH 7.4 and fluorescence intensity was measured at 530 nm (excitation) and 590 nm (emission). Intercalation of EtBr molecules between the base pairs of the DNA double helix results in increased fluorescence signal. Immediately thereafter, the cationic liposomes were added to form complexes at different +/−charge ratios and the quenching of fluorescence intensity of EtBr was monitored. Condensation of DNA upon complexation with liposomes results in the displacement of EtBr from DNA and in decreased fluorescence signal. Fluorescence was measured using FL 500 microplate fluorescence reader (Bio-Tek Instruments Inc., Winooski, Vt., USA).
The values are expressed as percentage of the maximum fluorescence signal when EtBr bound to DNA in the absence of an amphiphile. Each data point is from at least triplicate experiment ±S.D.

CVI-P cells = experiment: Cytotoxicity of amphiphile/DNA complexes, percentage of survived cells
[3] = amphiphile/DNA +/− charge ratio 0.5
[4] = amphiphile/DNA +/− charge ratio 1
[5] = amphiphile/DNA +/− charge ratio 2
[6] = amphiphile/DNA +/− charge ratio 4
[7] = amphiphile/DNA +/− charge ratio 8

Structure (SMILES)	melting point	transfection efficiency [1, 3]	transfection efficiency [1, 4]	transfection efficiency [1, 5]	transfection efficiency [1, 6]	transfection efficiency [1, 7]	transfection efficiency [2, 3]	transfection efficiency [2, 4]	transfection efficiency [2, 5]	transfection efficiency [2, 6]	transfection efficiency [2, 7]	cytotoxicity as a percentage of survived cells (D 407 cells; [3])	cytotoxicity as a percentage of survived cells (D 407 cells; [4])	cytotoxicity as a percentage of survived cells (D 407 cells; [5])	cytotoxicity as a percentage of survived cells (D 407 cells; [6])	cytotoxicity as a percentage of survived cells (D 407 cells; [7])	complexation, percentage of the maximum fluorescence signal when EtBr bound to DNA in the absence of an amphiphile (plasmid DNA; [3])	complexation, percentage of the maximum fluorescence signal when EtBr bound to DNA in the absence of an amphiphile (plasmid DNA; [4])	complexation, percentage of the maximum fluorescence signal when EtBr bound to DNA in the absence of an amphiphile (plasmid DNA; [5])	complexation, percentage of the maximum fluorescence signal when EtBr bound to DNA in the absence of an amphiphile (plasmid DNA; [6])	further results
Br.CCOC(=O)C1=C(C)NC(C)=C(C(=O)OCC)C1c1ccc[n+](CCCCCCCCCCC(=O)O)c1.[Br-]	134 to 136 °C																				
Br.CCOCCOC(=O)C1=C(C)NC(C)=C(C(=O)OCCOCC)C1c1ccc[n+](CC(=O)OCC)c1.[Br-]	163 to 165 °C																				
Br.CCCCCCCCCCCCCCCC[n+]1cccc(C2C(C(=O)OCc3ccc([N+](=O)[O-])cc3)=C(C)NC(C)=C2C(=O)OCc2ccc([N+](=O)[O-])cc2)c1.[Br-]	89 to 93 °C																				
Br.CCOC(=O)C1=C(C)NC(C)=C(C(=O)OCC)C1c1ccc[n+](CCCCCCCCCCCC(=O)O)c1.[Br-]	152 to 156 °C																				
Br.CCOC(=O)C[n+]1cccc(C2C(C(=O)OC3CC(C)CCC3C(C)C)=C(C)NC(C)=C2C(=O)OC2CC(C)CCC2C(C)C)c1.[Br-] (stereo not shown)	180 °C (dec.)																				
CCCCCCCCCCCCOC(=O)C1=C(C)NC(C)=C(C(=O)OCCCCCCCCCCCC)C1c1ccc[n+](C)c1.I.[I-] [V, 3′,5′-Bis(dodecyloxycarbonyl)-1′,4′-dihydro-1,2′,6′-trimethyl-3,4′-bipyridinium iodide]		0,48 β-galactosidase units per well	0,69 β-galactosidase units per well	27,19 β-galactosidase units per well	5,95 β-galactosidase units per well	1,4 β-galactosidase units per well	0,26 β-galactosidase units per well	8,10 β-galactosidase units per well	8,78 β-galactosidase units per well	0,55 β-galactosidase units per well	0,33 β-galactosidase units per well	85,27%	66,05%	55,61%	9,14%	0,28%	88,8%	80,33%	75,17%	71,93%	complexation, percentage of the maximum fluorescence signal when EtBr bound to DNA in the absence of an amphiphile (plasmid DNA; [7]): 72,4%; cytotoxicity as a percentage of survived cells (CVI-P cells; [3]): 100,21%; cytotoxicity as a percentage of survived cells (CVI-P cells; [4]): 87,18%; cytotoxicity as a percentage of survived cells (CVI-P cells; [5]): 71,79%; cytotoxicity as a percentage of survived cells (CVI-P cells; [6]): 40,55%; cytotoxicity as a percentage of survived cells (CVI-P cells; [7]): 8,67%
Br.CCOC(=O)C1=C(C)NC(C)=C(C(=O)OCC)C1c1cc[n+](CC(=O)c2ccccc2)cc1.[Br-]	224 to 227 °C																				
CCOC(=O)C1=C(C)NC(C)=C(C(=O)OCC)C1c1ccc[n+](-c2ccc([N+](=O)[O-])cc2[N+](=O)[O-])c1.Cl.[Cl-]	178 to 180 °C																				
CCCCCCCCCCCCCCCCOC(=O)C1=C(C[n+]2ccccc2)NC(C[n+]2ccccc2)=C(C(=O)OCCCCCCCCCCCCCCCC)C1c1ccccc1.[Br-].[Br-] [XXV, 1,1′-[(3,5-Dihexadecyloxycarbonyl-4-phenyl-1,4-dihydropyridine-2,6-diyl)dimethylene]bispyridinium dibromide]		0,23 β-galactosidase units per well	0,24 β-galactosidase units per well	17,5 β-galactosidase units per well	15,15 β-galactosidase units per well	9,04 β-galactosidase units per well	0,57 β-galactosidase units per well	0,31 β-galactosidase units per well	066 β-galactosidase units per well	2,05 β-galactosidase units per well	2,47 β-galactosidase units per well	97,52%	97,73%	101,48%	89,12%	62,05%	94,16%	89,06%	83,1%	77,14%	complexation, percentage of the maximum fluorescence signal when EtBr bound to DNA in the absence of an amphiphile (plasmid DNA; [7]): 71,37%; cytotoxicity as a percentage of survived cells (CVI-P cells; [3]): 92,82%; cytotoxicity as a percentage of survived cells (CVI-P cells; [4]): 99,29%; cytotoxicity as a percentage of survived cells (CVI-P cells; [5]): 101,03%; cytotoxicity as a percentage of survived cells (CVI-P cells; [6]): 107,03%; cytotoxicity as a percentage of survived cells (CVI-P cells; [7]): 100,65%
CCCCCCCCCCCCCCOC(=O)C1=C(C[n+]2ccccc2)NC(C[n+]2ccccc2)=C(C(=O)OCCCCCCCCCCCCCC)C1c1ccccc1.[Br-].[Br-] [XXIV, 1,1′-{[1,4-Dihydro-4-phenyl-3,5-bis(tetradecyloxycarbonyl)-pyridine-2,6-diyl]dimethylene}bispyridinium dibromide]		0,63 β-galactosidase units per well	2,48 β-galactosidase units per well	15,46 β-galactosidase units per well	47,78 β-galactosidase units per well	9,48 β-galactosidase units per well	0,20 β-galactosidase units per well	0,44 β-galactosidase units per well	0,53 β-galactosidase units per well	15,04 β-galactosidase units per well	3,61 β-galactosidase units per well	97,59%	88,59%	98,83%	86,99%	51,24%	78,91%	63,92%	54,5%	50,0%	complexation, percentage of the maximum fluorescence signal when EtBr bound to DNA in the absence of an amphiphile (plasmid DNA; [7]): 49,62%; cytotoxicity as a percentage of survived cells (CVI-P cells; [3]): 96,17%; cytotoxicity as a percentage of survived cells (CVI-P cells; [4]): 98,12%; cytotoxicity as a percentage of survived cells (CVI-P cells; [5]): 86,72%; cytotoxicity as a percentage of survived cells (CVI-P cells; [6]): 88,19%; cytotoxicity as a percentage of survived cells (CVI-P cells; [7]): 48,08%
